Structures are written as SMILES. Like-named read-outs stand apart in the source and are kept apart here.

Broadly, the Kd is a measure of binding affinity in units of concentration.

Experiment [1] has as its system BaF3 cells harboring EGFR L858R/T790M/C797S mutant. Also noted: method as in PMID 30429956. As to conditions: read-out: IC50 BaF3 cells harboring EGFR L858R/T790M/C797S, previous studies; cited from earlier work.
For experiment [2], the system named is BaF3 cells stably expressing EGFR (L858R/T790M/C797S). Nature of the experiment: BaF3 cell assay (CTG luminescence). As to conditions: Mus musculus, BaF3, read-out: BaF3 cell assay IC50 (μM) L858R/T790M/C797S.
Description: The following steps were followed for cell culture and compound treatment:
% Inhibition is calculated as follow: %Inhibition=1−LUMcmpd−LUMave−pc/LUMave−vc−LUMave−pc×100
LUMcmpd = LUM for compound being tested
LUMave_pc = Average LUM for positive controls (10 μM Control Compound)
LUMave_vc = Average LUM for vehicle controls (0.1% DMSO)
Experiment [3] deals with T1, LSD1 (Homo sapiens, UniProt O60341). Nature of the experiment: LSD1 enzymatic assay.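 For Bottom: percent inhibition of LSD1 activity from the fitted dose-response curve.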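 For Top: percent inhibition of LSD1 activity from the fitted dose-response curve.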 As to conditions: for Bottom / Top / Hillslope: concentration-response curve fit parameter. The experiment is classed as biochemical. How it is done:
A total of 12 compounds were purchased from J&K Scientific Ltd. (Shanghai, China). The biological experiments of inhibiting the enzymatic activity of LSD1 by 12 test compounds were conducted by Pharmaron (Beijing, China). Each compound was serially diluted 4-fold in 100% dimethyl sulfoxide (DMSO) from a starting DMSO stock concentration of 20 mM to obtain 10 concentration doses. Seclidemstat was used as a positive control. The diluted compounds were added to the LSD1 assay buffer (50 mM Tris-HCl, pH 7.5, and 1% DMSO) and incubated with LSD1 for 30 min at room temperature. The peptide substrate was then added to initiate the reaction, and the mixture was further incubated for 60 min at room temperature. The reaction was stopped by adding the stop solution, followed by the addition of the detection solution containing protein-A-Eu, streptavidin-d2, and anti-Histone H3 (dimethyl K9) antibody. […] The IC50 was calculated using a nonlinear regression (dose response – variable slope) by fitting the inhibition ratio and log of compound concentrations using Graphpad 8.0.

For experiment [4], the target named is double-mutant EGFR (T790M/L858R) (Homo sapiens, UniProt P00533, L858R/T790M). Nature of the experiment: EGFR kinase assay (HTRF), double mutant. The experiment is classed as biochemical. As to the method: (§1) The biological experiments of inhibiting the activity of EGFR by test compounds were also performed by Pharmaron (Beijing). To conduct the kinase assay, the following steps were followed:
(§2) % Inhibition is calculated as follow: %Inhibition=1−SINGALcmpd−SINGALave−pc/SINGALave−vc−SINGALave−pc×100
(§3) SINGALcmpd = singal for compound being tested
(§4) SINGALave_pc = singal for positive controls
(§5) SINGALave_vc = singal for vehicle controls
For orientation: TR-FRET usually uses a lanthanide donor and a delayed reading to cut background.

In experiment [5] the target is triple-mutant EGFR (L858R/T790M/C797S) (Homo sapiens, UniProt P00533, C797S/L858R/T790M). Briefly: EGFR kinase assay (HTRF), triple mutant. It is filed as biochemical. As to conditions: for IC50: read-out: EGFR kinase assay IC50 (μM) L858R/T790M/C797S. As to the method: as §1, §2, §3, §4, §5
triple-mutant EGFR (L858R/T790M/C797S), sequence (P00533 25-1210 T790M/C797S/L858R): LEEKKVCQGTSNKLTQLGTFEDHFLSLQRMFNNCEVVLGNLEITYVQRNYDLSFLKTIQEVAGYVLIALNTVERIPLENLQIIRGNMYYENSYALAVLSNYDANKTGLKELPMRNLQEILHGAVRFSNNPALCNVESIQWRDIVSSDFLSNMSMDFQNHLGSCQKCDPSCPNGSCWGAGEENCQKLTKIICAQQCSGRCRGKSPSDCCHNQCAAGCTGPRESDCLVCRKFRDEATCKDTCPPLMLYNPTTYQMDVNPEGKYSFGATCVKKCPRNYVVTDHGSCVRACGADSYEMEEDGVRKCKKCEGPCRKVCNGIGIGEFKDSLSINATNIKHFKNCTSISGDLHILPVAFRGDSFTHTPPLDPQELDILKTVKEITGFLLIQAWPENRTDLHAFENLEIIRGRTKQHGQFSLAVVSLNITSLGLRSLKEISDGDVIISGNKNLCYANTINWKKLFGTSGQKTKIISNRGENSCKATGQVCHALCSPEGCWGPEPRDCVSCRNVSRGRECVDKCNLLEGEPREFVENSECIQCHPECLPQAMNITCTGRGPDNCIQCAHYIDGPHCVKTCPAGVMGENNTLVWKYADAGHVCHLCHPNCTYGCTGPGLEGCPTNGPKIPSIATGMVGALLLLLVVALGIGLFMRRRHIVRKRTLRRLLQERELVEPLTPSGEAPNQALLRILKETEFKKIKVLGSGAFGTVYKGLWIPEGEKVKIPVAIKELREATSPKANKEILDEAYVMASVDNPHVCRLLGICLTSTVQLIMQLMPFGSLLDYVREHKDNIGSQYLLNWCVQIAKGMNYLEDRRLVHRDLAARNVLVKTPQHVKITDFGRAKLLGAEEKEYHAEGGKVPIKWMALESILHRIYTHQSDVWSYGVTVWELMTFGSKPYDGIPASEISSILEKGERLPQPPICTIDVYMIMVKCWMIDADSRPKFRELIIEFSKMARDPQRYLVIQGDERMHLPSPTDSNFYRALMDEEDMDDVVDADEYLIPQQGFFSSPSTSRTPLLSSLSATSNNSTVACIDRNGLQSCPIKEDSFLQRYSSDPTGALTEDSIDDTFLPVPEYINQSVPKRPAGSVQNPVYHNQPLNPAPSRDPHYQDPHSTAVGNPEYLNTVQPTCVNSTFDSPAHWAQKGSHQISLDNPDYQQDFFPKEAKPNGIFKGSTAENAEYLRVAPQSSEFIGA
Experiment [6] concerns the target T1, LSD1. Nature of the experiment: SPR binding assay (Biacore T200). How it is done:
Surface plasmon resonance (SPR) was employed to evaluate direct binding between compounds and LSD1 using Biacore T200 optical biosensor (Biacore Life Sciences, GE Healthcare). LSD1 was covalently attached to CM5 sensor chip via amine coupling. Binding experiments were conducted at 15 °C in a buffer containing 10 mM HEPES (pH 7.4), 150 mM NaCl, 1% DMSO, and 0.05% Tween, with a flow rate of 30 μL/min. Compounds were serially diluted in the same buffer and injected over the prepared surfaces for 15–25 s at increasing concentrations. Sensorgrams were corrected by subtracting signals from both an untreated reference channel and blank injections. Data analysis was performed using Biacore T200 evaluation software (GE Healthcare).
A general note: Surface plasmon resonance follows binding to a sensor surface in real time, without labels.

[7] abbreviates: read-out: IC50 (μM) against LSD1.

double-mutant EGFR (T790M/L858R), sequence (P00533 25-1210 T790M/L858R): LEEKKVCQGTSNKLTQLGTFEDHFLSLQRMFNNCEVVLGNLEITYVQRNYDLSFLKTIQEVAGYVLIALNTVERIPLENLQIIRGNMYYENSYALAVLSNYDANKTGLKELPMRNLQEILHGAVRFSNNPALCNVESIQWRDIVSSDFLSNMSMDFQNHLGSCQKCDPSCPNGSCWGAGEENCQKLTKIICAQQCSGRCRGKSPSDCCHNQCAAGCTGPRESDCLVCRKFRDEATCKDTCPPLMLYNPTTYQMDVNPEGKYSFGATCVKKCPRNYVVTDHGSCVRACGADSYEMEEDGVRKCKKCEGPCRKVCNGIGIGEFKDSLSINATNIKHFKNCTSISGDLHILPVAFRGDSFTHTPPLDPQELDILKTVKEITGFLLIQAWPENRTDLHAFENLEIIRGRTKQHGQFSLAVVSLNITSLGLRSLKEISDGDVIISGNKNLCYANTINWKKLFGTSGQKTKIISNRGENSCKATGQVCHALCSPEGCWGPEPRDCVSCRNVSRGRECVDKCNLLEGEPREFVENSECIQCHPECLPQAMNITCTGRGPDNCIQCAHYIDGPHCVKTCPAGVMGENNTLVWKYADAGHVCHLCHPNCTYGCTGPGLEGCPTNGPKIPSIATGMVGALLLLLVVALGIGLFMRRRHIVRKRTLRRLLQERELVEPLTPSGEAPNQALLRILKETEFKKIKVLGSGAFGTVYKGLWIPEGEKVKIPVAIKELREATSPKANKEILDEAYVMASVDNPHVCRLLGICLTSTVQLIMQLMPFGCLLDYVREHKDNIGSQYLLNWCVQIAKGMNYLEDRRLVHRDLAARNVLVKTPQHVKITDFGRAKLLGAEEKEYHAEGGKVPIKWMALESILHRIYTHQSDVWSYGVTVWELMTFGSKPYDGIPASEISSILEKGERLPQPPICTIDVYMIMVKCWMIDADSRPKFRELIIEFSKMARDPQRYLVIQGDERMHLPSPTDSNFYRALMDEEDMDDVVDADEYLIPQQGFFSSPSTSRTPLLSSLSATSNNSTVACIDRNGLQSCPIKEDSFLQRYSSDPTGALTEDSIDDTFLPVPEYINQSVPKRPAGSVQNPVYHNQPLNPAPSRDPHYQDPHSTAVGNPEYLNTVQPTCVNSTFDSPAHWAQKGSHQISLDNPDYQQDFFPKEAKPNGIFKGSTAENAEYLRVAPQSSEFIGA

In the case of `COc1cc(N2CCC(N3CCN(C)CC3)CC2)ccc1Nc1ncc(Cl)c(Nc2ccccc2P(C)(C)=O)n1` [Brigatinib, reference compound], the values for the IC50 in experiment [1] and in experiment [2] were 0.42 µM and 0.4 µM, respectively.

Turning to `CCN(CC)c1ccc(/C=C2/C(=O)NC(=O)N(c3ccc(Cl)cc3)C2=O)cc1` [D-1], on LSD1 [3], the IC50 is more than 100 µM.

On LSD1 [3], `CCN(CC)c1ccc(/C=C2/C(=O)NC(=O)N(c3ccc(Cl)cc3)C2=O)c(OC)c1` [D-2] returned an IC50 of more than 100 µM.

For `CCN(CC)c1ccc(/C=C2/C(=O)NC(=O)N(c3ccc(C(F)(F)F)cc3)C2=O)c(O)c1` [D-3], at LSD1 [3], the IC50 was determined as 35.7 µM, the Relative potency % is on record as 0.4%, the Bottom is recorded as 8.10 and the Top came to 45.78.

On LSD1 [3], `Cc1ccc(-c2noc(-c3cccn(CC(=O)Nc4ccccc4Br)c3=O)n2)cc1` [D-4] gave a Relative potency % of 0.5%, a Bottom of 5.79, a Hillslope of 4.05 and a Top of 60.26. Also, the IC50 at LSD1 [3] (setting [7]) was 29.2 µM.

As to `COc1ccccc1NC(=O)Cn1cc(-c2nc(-c3ccc(C)cc3)no2)ccc1=O` [D-5], on LSD1 [3], the Relative potency % worked out at 0.7%, the Bottom is recorded as 7.19, the Hillslope is reported as 2.04 and the Top is 54.06. For the same compound, on LSD1 [3] (setting [7]), the IC50 amounted to 21.5 µM.

In the case of `CCOc1ccccc1NC(=O)Cn1cc(-c2nc(-c3ccc(C)cc3)no2)ccc1=O` [D-6], the IC50 at LSD1 [3] (setting [7]) was more than 100 µM.

Turning to `COC(=O)c1ccccc1NC(=O)Cn1cc(-c2nc(-c3ccc(C)cc3)no2)ccc1=O` [D-7], the IC50 on LSD1 [3] (setting [7]) is more than 100 µM.

Consider `Cc1ccc(-c2noc(-c3ccc(=O)n(CC(=O)Nc4cccc(Br)c4)c3)n2)cc1` [D-8], for which, at LSD1 [3] (setting [7]), the IC50 is more than 100 µM.

At LSD1 [3], `Cc1ccc(-c2noc(-c3ccc(=O)n(CC(=O)Nc4ccc(Br)cc4)c3)n2)cc1` [D-9] came in with a Relative potency % of 0.5%, a Bottom of 3.84 and a Top of 52.57. On LSD1 [3] (setting [7]), the IC50 turned out to be 26.6 µM.

At LSD1 [3], `Cc1ccc(-c2noc(-c3ccc(=O)n(CC(=O)Nc4ccccc4C(F)(F)F)c3)n2)cc1` [D-10] had a Relative potency % of 0.4%, a Bottom of 2.43 and a Top of 42.68. Besides, the IC50 on LSD1 [3] (setting [7]) amounted to 34.3 µM.

On to `Cc1ccc(-c2noc(-c3ccc(=O)n(CC(=O)Nc4ccc(C)cc4Br)c3)n2)cc1` [D-11], for which, on LSD1 [3] (setting [7]), the IC50 was more than 100 µM.

Consider `COc1cc(Cl)c(C)cc1NC(=O)Cn1cc(-c2nc(-c3ccc(C)cc3)no2)ccc1=O` [D-12], for which the IC50 on LSD1 [3] (setting [7]) was more than 100 µM.

For `CCCCNC(=O)Cn1cc(-c2nc(-c3ccc(C)cc3)no2)ccc1=O` [D-13], the IC50 at LSD1 [3] (setting [7]) is more than 100 µM.

Consider `Cc1ccc(-c2noc(-c3ccc(=O)n(CC(=O)NCc4ccccc4)c3)n2)cc1` [D-14], for which, on LSD1 [3], the Relative potency % is 0.5%. Moreover, at LSD1 [3], the Bottom is −1.64. On LSD1 [3], the Hillslope was 2.53. At LSD1 [3], this compound had a Top of 48.09. Further, the IC50 on LSD1 [3] (setting [7]) amounted to 28.3 µM; in experiment [4], 73.9 µM; in experiment [5], 86.7 µM; in experiment [2], 2.45 µM.

For `COC(=O)c1sccc1NC(=O)Cn1cc(-c2nc(-c3ccc(C)cc3)no2)ccc1=O` [D-15], the IC50 on LSD1 [3] (setting [7]) was more than 100 µM.

Take `Cc1noc(-c2ccc(=O)n(CC(=O)Nc3ccccc3Br)c2)n1` [D-16]: the Relative potency % on LSD1 [3] was 0.5%. This compound displayed a Bottom on LSD1 [3] of −2.33. Further, the Top on LSD1 [3] stood at 51.97. The IC50 amounted to 28.7 µM on LSD1 [3] (setting [7]), 59.6 µM in experiment [5] and 2.72 µM in experiment [2].

For the compound `CCCc1noc(-c2ccc(=O)n(CC(=O)Nc3ccccc3Br)c2)n1` [D-17], on LSD1 [3], the Relative potency % was found to be 0.8%, the Bottom is −0.07 and the Top was 64.23. Also, on LSD1 [3] (setting [7]), the IC50 is 19.8 µM. In experiment [4], this compound gave an IC50 of more than 100 µM. Moreover, the IC50 in experiment [5] is more than 100 µM.

In the case of `CC(C)c1noc(-c2ccc(=O)n(CC(=O)Nc3ccccc3Br)c2)n1` [D-18], at LSD1 [3] (setting [7]), the IC50 was more than 100 µM.

In the case of `Cc1ccc(-c2noc(-c3ccc(=O)n(CC(=O)Nc4ccccc4Br)c3)n2)cc1` [L-6], on LSD1 [3], the Relative potency % stood at 2.5%, the Bottom was −11.46, the Hillslope was determined as 1.86 and the Top amounted to 55.47. The IC50 on LSD1 [3] (setting [7]) amounted to 9.26 µM. In addition, the “Binding to LSD1 by SPR (in words)” value at LSD1 [6] was “specific and reversible binding”. Further, on LSD1 [6] (SPR, 15 °C, read-out: dissociation constant (KD)), the Kd was 26.4 µM. The compound also returned an IC50 in experiment [4] of 26.5 µM. In experiment [5], the IC50 was determined as 28.5 µM. Besides, the IC50 in experiment [2] came to 8.99 µM.

As to `C/C(=N\NC(=O)c1cccc(S(=O)(=O)N2CCN(C)CC2)c1)c1cc(Cl)ccc1O` [Seclidemstat, seclidemstat, reference compound], the IC50 against LSD1 [3] was determined as 0.231 µM; in experiment [2] it was 0.98 µM. In addition, at LSD1 [3] (at 10 μM), the “Inhibition of LSD1 enzymatic activity” value was “complete inhibition”. Moreover, the “Inhibitory activity against EGFR double mutant (in words)” value in experiment [4] is recorded as “does not exhibit inhibitory activity”. Also, the “Inhibitory activity against EGFR triple mutant (in words)” value in experiment [5] is listed as “does not exhibit inhibitory activity”.

The record behind these values is paper PMC11950244, “Discovery of novel dual-target inhibitors of LSD1/EGFR for non-small cell lung cancer therapy” (Acta Pharmacologica Sinica, 2025).
